In the NIST ThermoML archive (doi:10.1016/j.jct.2016.12.020):

Test: excess molar enthalpy (molar enthalpy of mixing); xn = mol fraction of the nth substance listed
Conditions: 100 kPa, Liquid, Calvet calorimetry

[Au] [gold] + [Ga]
excess molar enthalpy [kcal/mol]
Conditions	1223 K	1323 K
x1 = 0.03042	-0.3007	–
x1 = 0.03979	–	-0.4015
x1 = 0.0642	-0.6272	–
x1 = 0.07894	–	-0.7875
x1 = 0.09685	-0.9732	–
x1 = 0.116	–	-1.149
x1 = 0.1281	-1.308	–
x1 = 0.1512	–	-1.492
x1 = 0.1606	-1.622	–
x1 = 0.1843	–	-1.794
x1 = 0.1915	-1.907	–
x1 = 0.2172	–	-2.085
x1 = 0.2205	-2.139	–
x1 = 0.2492	-2.37	-2.366
x1 = 0.2762	-2.589	–
x1 = 0.2785	–	-2.596
x1 = 0.3018	-2.787	–
x1 = 0.3074	–	-2.819
x1 = 0.3274	-2.98	–
x1 = 0.3345	–	-3.014
x1 = 0.3516	-3.153	–
x1 = 0.3597	–	-3.179
x1 = 0.3741	-3.296	–
x1 = 0.3836	–	-3.319
x1 = 0.3958	-3.404	–
x1 = 0.4061	–	-3.431
x1 = 0.4164	-3.509	–
x1 = 0.4283	–	-3.53
x1 = 0.4363	-3.587	–
x1 = 0.449	–	-3.615
x1 = 0.4553	-3.665	–
x1 = 0.4692	–	-3.695
x1 = 0.4737	-3.733	–
x1 = 0.4871	-3.783	–
x1 = 0.4882	–	-3.752
x1 = 0.4991	–	-3.797
x1 = 0.5003	-3.814	–
x1 = 0.5096	–	-3.825
x1 = 0.5139	-3.826	–
x1 = 0.5203	–	-3.85
x1 = 0.527	-3.839	–
x1 = 0.5307	–	-3.87
x1 = 0.5395	-3.851	–
x1 = 0.5412	–	-3.88
x1 = 0.5514	–	-3.89
x1 = 0.5515	-3.86	–
x1 = 0.5621	–	-3.89
x1 = 0.5631	-3.88	–
x1 = 0.5727	–	-3.9
x1 = 0.5743	-3.88	–
x1 = 0.5829	–	-3.9
x1 = 0.585	-3.88	–
x1 = 0.5927	–	-3.89
x1 = 0.5953	-3.88	–
x1 = 0.6028	–	-3.88
x1 = 0.6053	-3.88	–
x1 = 0.6129	–	-3.87
x1 = 0.6147	-3.88	–
x1 = 0.6231	–	-3.84
x1 = 0.6239	-3.87	–
x1 = 0.6306	-3.86	–
x1 = 0.637	-3.85	–
x1 = 0.6431	-3.83	–

[Ag] [silver] + [Ga]
Conditions	excess molar enthalpy [kcal/mol]
1223 K, x1 = 0.04915	0.0514
1223 K, x1 = 0.0956	0.0619
1223 K, x1 = 0.1383	0.0729
1223 K, x1 = 0.1792	0.0681
1223 K, x1 = 0.2178	0.0629
1223 K, x1 = 0.2552	0.0301
1223 K, x1 = 0.2905	-0.00215
1223 K, x1 = 0.3228	-0.0502
1223 K, x1 = 0.3528	-0.0958
1223 K, x1 = 0.3809	-0.14
1223 K, x1 = 0.4081	-0.193
1223 K, x1 = 0.4336	-0.252
1223 K, x1 = 0.4572	-0.308
1223 K, x1 = 0.4789	-0.346
1223 K, x1 = 0.4992	-0.389
1223 K, x1 = 0.5189	-0.447
1223 K, x1 = 0.5372	-0.494
1223 K, x1 = 0.5548	-0.535
1223 K, x1 = 0.5712	-0.574
1323 K, x1 = 0.05283	0.0533
1323 K, x1 = 0.1006	0.0992
1323 K, x1 = 0.1464	0.112
1323 K, x1 = 0.1894	0.107
1323 K, x1 = 0.2288	0.0978
1323 K, x1 = 0.2649	0.0846
1323 K, x1 = 0.2996	0.0519
1323 K, x1 = 0.3321	0.00598
1323 K, x1 = 0.3634	-0.0519
1323 K, x1 = 0.3921	-0.0949
1323 K, x1 = 0.4189	-0.144
1323 K, x1 = 0.4443	-0.198
1323 K, x1 = 0.4687	-0.227
1323 K, x1 = 0.4964	-0.274
1323 K, x1 = 0.5168	-0.312
1323 K, x1 = 0.5359	-0.344
1323 K, x1 = 0.5558	-0.386
